Assay results taken from US8569311B2, “Pyridyl piperidine orexin receptor antagonists” (Merch Sharp & Dohme Corp., priority 2007, dated 2013).
pKi: −log10 of the molar value.

Tests used:
OX2R = OX2R (Homo sapiens (Human), UniProt O43614); experiment: radioligand binding assay, OX2 receptor; conditions: membranes prepared from CHO cells expressing the OX2 receptor
Protocol: (§1) The utility of the compounds in accordance with the present invention as orexin receptor OX1R and/or OX2R antagonists may be readily determined without undue experimentation by methodology well known in the art, including the “FLIPR Ca^2+ Flux Assay” (Okumura et al., Biochem. Biophys. Res. Comm 280:976-981, 2001). In a typical experiment the OX1 and OX2 receptor antagonistic activity of the compounds of the present invention was determined in accordance with the following experimental method. For intracellular calcium measurements, Chinese hamster ovary (CHO) cells expressing the rat orexin-1 receptor or the human orexin-2 receptor, are grown in Iscove's modified DMEM containing 2 mM L-glutamine, […], 1% hypoxanthine-thymidine supplement, 100 U/ml penicillin, 100 ug/ml streptomycin and 10% heat-inactivated fetal calf serum (FCS). The cells are seeded at 20,000 cells/well into Becton-Dickinson black 384-well clear bottom sterile plates coated with poly-D-lysine. All reagents were from GIBCO-Invitrogen Corp. The seeded plates are incubated overnight at 37° C. and 5% CO2. Ala-6,12 human orexin-A as the agonist is prepared as a 1 mM stock solution in 1% bovine serum albumin (BSA) and diluted in assay buffer (HBSS containing 20 mM HEPES, 0.1% BSA and 2.5 mM probenecid, pH7.4) for use in the assay at a final concentration of 70 pM. Test compounds are prepared as 10 mM stock solution in DMSO, then diluted in 384-well plates, first in DMSO, then assay buffer. On the day of the assay, cells are washed 3 times with 100 ul assay buffer and then incubated for 60 min (37° C., 5% CO2) in 60 ul assay buffer containing 1 uM Fluo-4AM ester, 0.02% pluronic acid, and 1% BSA. The dye loading solution is then aspirated and cells are washed 3 times with 100 ul assay buffer. 30 ul of that same buffer is left in each well. Within the Fluorescent Imaging Plate Reader (FLIPR, Molecular Devices), test compounds are added to the plate in a volume of 25 ul, incubated for 5 min and finally 25 ul of agonist is added. Fluorescence is measured for each well at 1 second intervals for 5 minutes and the height of each fluorescence peak is compared to the height of the fluorescence peak induced by 70 pM Ala-6,12 orexin-A with buffer in place of antagonist. For each antagonist, IC50 value (the concentration of compound needed to inhibit 50% of the agonist response) is determined. Alternatively, compound potency can be assessed by a radioligand binding assay (described in Bergman et. al. Bioorg. Med. Chem. Lett. 2008, 18, 1425-1430) in which the inhibition constant (Ki) is determined in membranes prepared from CHO cells expressing either the OX1 or OX2 receptor. The intrinsic orexin receptor antagonist activity of a compound which may be used in the present invention may be determined by these assays.

OX1R = OX1R (Rattus norvegicus, UniProt P56718); experiment: radioligand binding assay, OX1 receptor; conditions: membranes prepared from CHO cells expressing the OX1 receptor
Protocol: as §1

Sequence of OX2R (O43614 whole entry): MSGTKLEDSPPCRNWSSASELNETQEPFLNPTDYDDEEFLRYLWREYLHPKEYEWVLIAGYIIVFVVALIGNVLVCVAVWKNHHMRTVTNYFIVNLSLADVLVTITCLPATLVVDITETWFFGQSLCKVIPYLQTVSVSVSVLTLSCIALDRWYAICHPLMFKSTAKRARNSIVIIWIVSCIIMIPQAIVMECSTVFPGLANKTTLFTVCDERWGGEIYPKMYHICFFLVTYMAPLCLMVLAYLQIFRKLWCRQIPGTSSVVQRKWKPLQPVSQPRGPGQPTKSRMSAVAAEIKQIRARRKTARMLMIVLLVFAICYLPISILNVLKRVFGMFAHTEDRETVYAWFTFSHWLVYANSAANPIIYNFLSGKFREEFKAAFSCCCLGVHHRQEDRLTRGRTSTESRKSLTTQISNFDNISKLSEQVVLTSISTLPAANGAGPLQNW
Sequence of OX1R (P56718 whole entry, looked up): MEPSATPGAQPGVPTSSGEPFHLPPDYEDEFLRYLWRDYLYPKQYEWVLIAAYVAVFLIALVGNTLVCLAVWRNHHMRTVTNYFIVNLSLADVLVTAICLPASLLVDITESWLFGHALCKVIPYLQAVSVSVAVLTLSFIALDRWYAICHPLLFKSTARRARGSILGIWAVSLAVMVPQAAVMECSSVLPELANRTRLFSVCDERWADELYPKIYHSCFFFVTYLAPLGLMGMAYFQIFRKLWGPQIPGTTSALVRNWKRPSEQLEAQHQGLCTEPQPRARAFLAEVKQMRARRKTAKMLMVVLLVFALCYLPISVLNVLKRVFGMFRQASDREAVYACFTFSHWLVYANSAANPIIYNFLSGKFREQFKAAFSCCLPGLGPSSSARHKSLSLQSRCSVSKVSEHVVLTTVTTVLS

Work on Cc1ccc(-c2nccs2)c(C(=O)N2C[C@H](COc3ccc(F)cn3)CC[C@H]2C)c1 [Compound 1-1, 5-fluoro-2-({(3R,6R)-6-methyl-1-[5-methyl-2-(1,3-thiazol-2-yl)benzoyl]piperidin 3-yl}methoxy)pyridine] yielded a pKi (OX2R) of 9.62 and a pKi (OX1R) of 8.74.
For C[C@@H]1CC[C@@H](COc2ccc(F)cn2)CN1C(=O)c1ccccc1-n1nccn1 [Compound 1-4, 5-fluoro-2-({(3R,6R)-6-methyl-1-[2-(2H-1,2,3-triazol-2-yl)benzoyl]piperidin-3-yl}methoxy)pyridine], the pKi (OX2R) was 9.43 and the pKi (OX1R) was 7.92.
Molecule C[C@@H]1CC[C@@H](COc2ccc(F)cn2)CN1C(=O)c1cc(F)ccc1-n1nccn1 [Compound 1-8, 5-fluoro-2-({(3R,6R)-1-[5-fluoro-2-(2H-1,2,3-triazol-2-yl)benzoyl]-6-methylpiperidin-3-yl}methoxy)pyridine] has a pKi (OX2R) of 9.30 and a pKi (OX1R) of 8.17.
Cc1ccc(-c2ccccc2)c(C(=O)N2C[C@H](COc3ccc(F)cn3)CC[C@H]2C)c1 [Compound 1-10, 5-fluoro-2-({(3R,6R)-6-methyl-1-[(4-methylbiphenyl-2-yl)carbonyl]piperidin-3-yl}methoxy)pyridine] gave a pKi (OX2R) of 10.10 and a pKi (OX1R) of 9.15.
Work on Cc1ccc(-c2ccccn2)c(C(=O)N2C[C@H](COc3ccc(F)cn3)CC[C@H]2C)c1 [Compound 1-15, 5-fluoro-2-{[(3R,6R)-6-methyl-1-(5-methyl-2-pyridin-2-ylbenzoyl)piperidin-3-yl}methoxy}pyridine] yielded a pKi (OX2R) of 9.46 and a pKi (OX1R) of 8.49.
C[C@@H]1CC[C@@H](COc2ccc(F)cn2)CN1C(=O)c1cc(F)ccc1-c1ncccn1 [Compound 1-19, 2-{4-fluoro-2-[((2R,5R)-5-{[(5-fluoropyridin-2-yl)oxy]methyl}-2-methylpiperidin-1-yl)carbonyl]phenyl}pyrimidine] gave a pKi (OX2R) of 9.28 and a pKi (OX1R) of 8.00.
Cc1ccc(-c2cn[nH]c2)c(C(=O)N2C[C@H](COc3ccc(F)cn3)CC[C@H]2C)c1 [Compound 1-21, 5-fluoro-2-({(3R,6R)-6-methyl-1-[5-methyl-2-(1H-pyrazol-4-yl)benzoyl]piperidin-3-yl}methoxy)pyridine] gave a pKi (OX2R) of 9.32 and a pKi (OX1R) of 8.15.
CCOc1ccccc1C(=O)N1C[C@H](COc2ccc(F)cn2)CC[C@H]1C [Compound 1-24, 2-{[(3R,6R)-1-(2-ethoxybenzoyl)-6-methylpiperidin-3-yl]methoxy}-5-fluoropyridine] was tested, and the pKi (OX2R) was 8.77 and the pKi (OX1R) was 7.44.
For C[C@@H]1CC[C@@H](COc2ccc(F)cn2)CN1C(=O)c1cccc2cc[nH]c12 [Compound 1-27, 7-[((2R,5R)-5-{[(5-fluoropyridin-2-yl)oxy]methyl}-2-methylpiperidin-1-yl)carbonyl]-1H-indole], the pKi (OX2R) was 8.00 and the pKi (OX1R) was 7.12.
With C[C@@H]1CC[C@@H](COc2ccc(F)cn2)CN1C(=O)c1ccccc1-c1ncccn1 [Compound 1-28, 2-{2-[((2R,5R)-5-{[(5-fluoropyridin-2-yl)oxy]methyl}-2-methylpiperidin-1-yl)carbonyl]phenyl}pyrimidine] the pKi (OX2R) was 9.17 and the pKi (OX1R) was 7.77.
Work on C[C@@H]1CC[C@@H](COc2ccc(F)cn2)CN1C(=O)c1c(F)cccc1-c1ncccn1 [Compound 1-34, 2-{3-fluoro-2-[((2R,5R)-5-{[(5-fluoropyridin-2-yl)oxy]methyl}-2-methylpiperidin-1-yl)carbonyl]phenyl}pyrimidine] yielded a pKi (OX2R) of 9.17 and a pKi (OX1R) of 8.09.
With C[C@@H]1CC[C@@H](COc2ccc(F)cn2)CN1C(=O)c1ccccc1-n1cccn1 [Compound 1-37, 5-fluoro-2-({(3R,6R)-6-methyl-1-[2-(1H-pyrazol-1-yl)benzoyl]piperidin-3-yl}methoxy)pyridine] the pKi (OX2R) was 8.82 and the pKi (OX1R) was 7.26.
For C[C@@H]1CC[C@@H](COc2ccc(F)cn2)CN1C(=O)c1ncccc1-c1ccccc1 [Compound 1-38, 2-[((2R,5R)-5-{[(5-fluoropyridin-2-yl)oxy]methyl}-2-methylpiperidin-1-yl)carbonyl]-3-phenylpyridine], the pKi (OX2R) was 8.72 and the pKi (OX1R) was 7.07.
C[C@@H]1CC[C@@H](COc2ccc(Br)nc2)CN1C(=O)c1ccccc1-n1nccn1 [Compound 1-42, 2-bromo-5-({(3R,6R)-6-mcthyl-1-[2-(2H-1,2,3-triazol-2-yl)benzoyl]piperidin-3-yl}methoxy)pyridine] gave a pKi (OX2R) of 8.42 and a pKi (OX1R) of 7.19.
Work on C[C@@H]1CC[C@@H](COc2ccnc(Cl)c2)CN1C(=O)c1ccccc1-n1nccn1 [Compound 1-43, 2-chloro-4-({(3R,6R)-6-methyl-1-[2-(2H-1,2,3-triazol-2-yl)benzoyl]piperidin-3-yl}methoxy)pyridine] yielded a pKi (OX2R) of 7.66 and a pKi (OX1R) of 6.85.
In the case of Cc1ccc(-n2nccn2)c(C(=O)N2CCCC(COc3ccc(F)nc3)C2)c1 (stereo not drawn) [Compound 2-1], the pKi (OX2R) was 7.54 and the pKi (OX1R) was 7.02.
Molecule Cc1ccc(-n2nccn2)c(C(=O)N2C[C@H](COc3ccc(F)cn3)CC[C@H]2C)c1 [Compound A-9, 5-Fluoro-2-({(3R,6R)-6-methyl-1-[5-methyl-2-(2H-1,2,3-triazol-2-yl)benzoyl]piperidin-3-yl}methoxy)pyridine] has a pKi (OX2R) of 9.62 and a pKi (OX1R) of 9.00.
Cc1ccc(-c2cnccn2)c(C(=O)N2C[C@H](COc3ccc(F)cn3)CC[C@H]2C)c1 [Compound B-3, 2-{2-[((2R,5R)-5-{[(5-Fluoropyridin-2-yl)oxy]methyl}-2-methylpiperidin-1-yl)carbonyl]-4-methylphenyl}pyrazine] was tested, and the pKi (OX2R) was 9.27 and the pKi (OX1R) was 8.48.
Cc1cccc(OC[C@@H]2CC[C@@H](C)N(C(=O)c3ccccc3-n3nccn3)C2)n1 [Compound C-4, 2-Methyl-6-({(3R,6R)-6-methyl-1-[2-(2H-1,2,3-triazol-2-yl)benzoyl]piperidin-3-yl}methoxy)pyridine] gave a pKi (OX2R) of 9.17 and a pKi (OX1R) of 7.66.
Cc1ccc(-c2ncccn2)c(C(=O)N2C[C@H](COc3ccc(F)cn3)CC[C@H]2C)c1 [Compound E-5, 2-{2-[((2R,5R)-5-{[(5-Fluoropyridin-2-yl)oxy]methyl}-2-methylpiperidin-1-yl)carbonyl]-4-methylphenyl}pyrimidine] showed a pKi (OX2R) of 9.51 and a pKi (OX1R) of 8.54.
In the case of C[C@@H]1CC[C@@H](COc2ccc(F)cn2)CN1C(=O)c1cc(C(=O)O)ccc1-n1nccn1 [Compound F-4, 3-[((2R,5R)-5-{[(5-Fluoropyridin-2-yl)oxy]methyl}-2-methylpiperidin-1-yl)carbonyl]-4-(2H-1,2,3-triazol-2-yl)benzoic acid], the pKi (OX2R) was 6.39 and the pKi (OX1R) was 6.59.
C[C@@H]1CC[C@@H](COc2ccc(F)cn2)CN1C(=O)c1cc(CO)ccc1-n1nccn1 [Compound G-1, [3-[((2R,5R)-5-{[(5-Fluoropyridin-2-yl)oxy]methyl}-2-methylpiperidin-1-yl)carbonyl]-4-(2H-1,2,3-triazol-2-yl)phenyl]methanol] was tested, and the pKi (OX2R) was 8.77 and the pKi (OX1R) was 7.85.
Molecule C[C@@H]1CC[C@@H](COc2ccc(F)cn2)CN1C(=O)c1cc(C(=O)O)ccc1-c1ncccn1 [Compound H-4, 3-[((2R,5R)-5-{[(5-fluoropyridin-2-yl)oxy]methyl}-2-methylpiperidin-1-yl)carbonyl]-4-pyrimidin-2-ylbenzoic acid] has a pKi (OX2R) of 7.43 and a pKi (OX1R) of 7.08.
C[C@@H]1CC[C@@H](COc2ccc(F)cn2)CN1C(=O)c1cc(CO)ccc1-c1ncccn1 [Compound I-7, {3-[((2R,5R)-5-{[(5-Fluoropyridin-2-yl)oxy]methyl}-2-methylpiperidin-1-yl)carbonyl]-4-pyrimidin-2-ylphenyl}methanol] gave a pKi (OX2R) of 8.70 and a pKi (OX1R) of 7.52.
